ChEMBL document CHEMBL5724914, “Linking interpersonal differences in gut microbiota composition and drug biotransformation activity” (2024)

Columns and labels:
[1] = The drug is tested on Z-012 corresponding to metagenome with ENA study accession number: PRJEB37062 and ENA sample accession number: ERS12561812 for biotransformation under anaerobic condition. The drug concentrations were measured over 9 timepoints collected between 0 and 24 hours of incubation by liquid-chromatography-coupled mass spectrometry (LC–MS); conditions: 2 µM
[2] = (§1) The drug is tested on Z-011 corresponding to mouse gut metagenome with ENA study accession number: PRJEB37062 and ENA sample accession number: ERS12561811 for biotransformation under anaerobic condition. The drug concentrations were measured over 9 timepoints collected between 0 and 24 hours of incubation by liquid-chromatography-coupled mass spectrometry (LC–MS); conditions: 2 µM
[3] = as §1, with “WLS-350” for “Z-011”, “human” for “mouse”, “ERS12561789” for “ERS12561811”; conditions: 2 µM
[4] = as §1, with “WLS-098” for “Z-011”, “human” for “mouse”, “ERS12561754” for “ERS12561811”; conditions: 2 µM
[5] = as §1, with “WLS-082” for “Z-011”, “human” for “mouse”, “ERS12561751” for “ERS12561811”; conditions: 2 µM
[6] = as §1, with “WLS-027” for “Z-011”, “human” for “mouse”, “ERS12561744” for “ERS12561811”; conditions: 2 µM
[7] = as §1, with “WLS-006” for “Z-011”, “human” for “mouse”, “ERS12561741” for “ERS12561811”; conditions: 2 µM
[8] = human gut metagenome, 24 h, 2 µM
[9] = human gut metagenome, 24 h, 2 µM; remark: listed apart in the source
Note: call rule not given here.

| SMILES | Bacterial Biotransformation [1] | Bacterial Biotransformation [2] | Bacterial Biotransformation [3] | Bacterial Biotransformation [4] | Bacterial Biotransformation [5] | Bacterial Biotransformation [6] | Bacterial Biotransformation [7] | Bacterial Biotransformation [8] | Bacterial Biotransformation [9] |
| --- | --- | --- | --- | --- | --- | --- | --- | --- | --- |
| CN1CCC(OC(c2ccccc2)c2ccccc2)CC1 | Compound NOT metabolized | Compound NOT metabolized | Compound NOT metabolized | Compound metabolized | Compound NOT metabolized | Compound NOT metabolized | Compound NOT metabolized | Compound NOT metabolized | Compound metabolized |
| CC1=C(CC(=O)O)c2cc(F)ccc2/C1=C\c1ccc([S+](C)[O-])cc1 (stereo not drawn) | Compound NOT metabolized | Compound NOT metabolized | Compound metabolized | Compound metabolized | Compound metabolized | Compound metabolized | Compound metabolized | Compound metabolized | Compound NOT metabolized |
| CCOC(=O)[C@H](CCc1ccccc1)N[C@@H](C)C(=O)N1Cc2ccccc2C[C@H]1C(=O)O | Compound NOT metabolized | Compound NOT metabolized | Compound NOT metabolized | Compound metabolized | Compound metabolized | Compound metabolized | Compound metabolized | Compound metabolized | Compound metabolized |
| N[C@@H](Cc1ccc(N(CCCl)CCCl)cc1)C(=O)O |  | Compound metabolized | Compound NOT metabolized | Compound metabolized |  | Compound metabolized | Compound metabolized | Compound NOT metabolized |  |
| CN(C)CCc1c[nH]c2ccc(CS(=O)(=O)N3CCCC3)cc12 [ALMOTRIPTAN] |  |  | Compound NOT metabolized | Compound metabolized | Compound NOT metabolized | Compound NOT metabolized | Compound NOT metabolized | Compound NOT metabolized | Compound metabolized |
| CCN1CCCC1CNC(=O)c1cc(S(=O)(=O)CC)c(N)cc1OC (stereo not drawn) [AMISULPRIDE] | Compound NOT metabolized | Compound NOT metabolized | Compound NOT metabolized | Compound metabolized | Compound NOT metabolized | Compound NOT metabolized | Compound NOT metabolized | Compound NOT metabolized | Compound metabolized |
| CC(C)NCC(O)COc1ccc(CC(N)=O)cc1 (stereo not drawn) [ATENOLOL] | Compound NOT metabolized | Compound NOT metabolized | Compound NOT metabolized | Compound metabolized | Compound NOT metabolized | Compound NOT metabolized | Compound NOT metabolized | Compound NOT metabolized | Compound metabolized |
| CCCCC(=O)O[C@]1(C(=O)CO)[C@@H](C)C[C@H]2[C@@H]3CCC4=CC(=O)C=C[C@]4(C)[C@@]3(F)[C@@H](O)C[C@@]21C [BETAMETHASONE VALERATE] |  |  | Compound NOT metabolized | Compound NOT metabolized | Compound metabolized | Compound metabolized | Compound metabolized | Compound metabolized | Compound metabolized |
| Cc1nc(Nc2ncc(C(=O)Nc3c(C)cccc3Cl)s2)cc(N2CCN(CCO)CC2)n1 [DASATINIB ANHYDROUS] |  |  | Compound NOT metabolized | Compound metabolized | Compound metabolized | Compound metabolized | Compound metabolized | Compound NOT metabolized | Compound metabolized |
| CC(=O)OCC(=O)[C@@]1(OC(C)=O)[C@@H](C)C[C@H]2[C@@H]3C[C@H](F)C4=CC(=O)C=C[C@]4(C)[C@@]3(F)[C@@H](O)C[C@@]21C [DIFLORASONE DIACETATE] | Compound metabolized | Compound metabolized | Compound metabolized | Compound metabolized | Compound metabolized | Compound metabolized | Compound metabolized | Compound metabolized | Compound metabolized |
| CN(C)CCC=C1c2ccccc2COc2ccccc21 [DOXEPIN] | Compound NOT metabolized | Compound NOT metabolized | Compound NOT metabolized | Compound metabolized | Compound NOT metabolized | Compound metabolized | Compound NOT metabolized | Compound metabolized | Compound metabolized |
| C#C[C@]1(OC(C)=O)CC[C@H]2[C@@H]3CCC4=C[C@@H](OC(C)=O)CC[C@@H]4[C@H]3CC[C@@]21C [ETHYNODIOL DIACETATE] | Compound metabolized | Compound metabolized | Compound metabolized | Compound metabolized | Compound metabolized |  | Compound metabolized | Compound metabolized | Compound metabolized |
| CN1CCN(C2=Nc3ccccc3Oc3ccc(Cl)cc32)CC1.O=C(O)CCC(=O)O [LOXAPINE SUCCINATE] |  |  | Compound NOT metabolized | Compound NOT metabolized | Compound NOT metabolized | Compound NOT metabolized | Compound NOT metabolized | Compound NOT metabolized | Compound NOT metabolized |

Next, values leading:

| Bacterial Biotransformation [1] | Bacterial Biotransformation [2] | Bacterial Biotransformation [3] | Bacterial Biotransformation [4] | Bacterial Biotransformation [5] | Bacterial Biotransformation [6] | Bacterial Biotransformation [7] | Bacterial Biotransformation [8] | Bacterial Biotransformation [9] | SMILES |
| --- | --- | --- | --- | --- | --- | --- | --- | --- | --- |
|  |  | Compound NOT metabolized | Compound NOT metabolized | Compound NOT metabolized | Compound NOT metabolized | Compound metabolized | Compound NOT metabolized | Compound NOT metabolized | COCCCC/C(=N\OCCN)c1ccc(C(F)(F)F)cc1.O=C(O)/C=C\C(=O)O [FLUVOXAMINE MALEATE] |
|  |  | Compound NOT metabolized | Compound NOT metabolized |  |  |  | Compound NOT metabolized | Compound NOT metabolized | CC#CCn1c(N2CCC[C@@H](N)C2)nc2c1c(=O)n(Cc1nc(C)c3ccccc3n1)c(=O)n2C [LINAGLIPTIN] |
|  |  | Compound metabolized | Compound metabolized | Compound metabolized | Compound metabolized | Compound metabolized | Compound metabolized | Compound metabolized | CCOC(=O)C1=C(C)NC(C)=C(C(=O)OC)C1c1cccc([N+](=O)[O-])c1 (stereo not drawn) [NITRENDIPINE] |
|  |  | Compound NOT metabolized | Compound metabolized | Compound NOT metabolized | Compound metabolized | Compound NOT metabolized | Compound NOT metabolized | Compound metabolized | N#Cc1ccc2c(c1)N(CCCN1CCC(O)CC1)c1ccccc1S2 [PERICIAZINE] |
|  |  | Compound NOT metabolized | Compound metabolized | Compound metabolized | Compound metabolized | Compound metabolized | Compound NOT metabolized | Compound NOT metabolized | O=C([O-])C[C@H](O)C[C@H](O)/C=C/c1c(C2CC2)nc2ccccc2c1-c1ccc(F)cc1.O=C([O-])C[C@H](O)C[C@H](O)/C=C/c1c(C2CC2)nc2ccccc2c1-c1ccc(F)cc1.[Ca+2] [PITAVASTATIN CALCIUM] |
| Compound metabolized |  | Compound NOT metabolized | Compound metabolized |  |  |  | Compound NOT metabolized | Compound NOT metabolized | CNNCc1ccc(C(=O)NC(C)C)cc1 [PROCARBAZINE] |
| Compound NOT metabolized | Compound NOT metabolized | Compound metabolized | Compound NOT metabolized | Compound NOT metabolized | Compound NOT metabolized |  | Compound metabolized | Compound metabolized | CN(C/C=C/C#CC(C)(C)C)Cc1cccc2ccccc12 [TERBINAFINE] |
| Compound NOT metabolized | Compound metabolized | Compound metabolized | Compound metabolized | Compound metabolized | Compound metabolized | Compound metabolized | Compound metabolized |  | N#Cc1ccc2[nH]cc(CCCCN3CCN(c4ccc5oc(C(N)=O)cc5c4)CC3)c2c1 [VILAZODONE] |
